# Reference: patent publication US12084472B2 (Ardelyx, Inc., priority 2015, dated 2024)
# Molecular target: T1, human TGR5 (Homo sapiens, UniProt Q8TDU6)
# T1 construct: expressed in transfected cells; host or cells: HEK293
# T1 sequence (Q8TDU6 1-330): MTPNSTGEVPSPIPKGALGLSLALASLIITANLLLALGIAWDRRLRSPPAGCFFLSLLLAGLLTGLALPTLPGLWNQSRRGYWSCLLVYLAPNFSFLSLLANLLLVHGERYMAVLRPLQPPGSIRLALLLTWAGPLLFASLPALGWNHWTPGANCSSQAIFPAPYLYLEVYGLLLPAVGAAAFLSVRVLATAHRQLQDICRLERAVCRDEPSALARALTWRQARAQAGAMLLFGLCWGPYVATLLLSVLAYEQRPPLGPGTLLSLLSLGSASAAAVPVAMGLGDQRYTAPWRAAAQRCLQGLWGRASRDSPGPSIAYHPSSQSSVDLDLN
# Experiment: Cell-based TGR5 assay (cAMP generation, HTRF)
# Settings: HEK293 cells stably transfected with human TGR5; cAMP by HTRF; 30 minutes at 37° C.; read-out: pEC50 Human TGR5 (converted)
# In short: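 First, compounds in 3-fold serial dilution were placed in HBSS with 10 mM HEPES pH 7.4 and 0.5 mM IBMX. Next, human TGR5-expressing HEK293 cells were added and incubated 30 min at 37° C. Finally, cAMP was detected by HTRF and pEC50 derived by logistic fitting.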
row,Compound,EC50 [nM]
1,"Cc1cc(CNC2(c3cnccc3-c3ccccc3OC3CC3)CC2)c(C)cc1CCCCC(=O)N(C)C[C@H](O)[C@@H](O)[C@H](O)[C@H](O)CO [Compound I-149, 5-{4-[({1-[4-(2-cyclopropoxyphenyl)pyridin-3-yl]cyclopropyl}amino)methyl]-2,5-dimethylphenyl}-N-methyl-N-[(2S,3R,4R,5R)-2,3,4,5,6-pentahydroxyhexyl]pentanamide]",126 to 1000
2,"COCCCN(CCCCc1cc(Cl)c(COC2(c3cnccc3-c3ccccc3OC3CC3)CC2)cc1Cl)C(=O)[C@@H](O)[C@@H](O)[C@H](O)[C@@H](O)CO [Compound I-212, (2S,3S,4R,5S)-N-{4-[2,5-dichloro-4-({1-[4-(2-cyclopropoxyphenyl)pyridin-3-yl]cyclopropoxy}methyl)phenyl]butyl}-2,3,4,5,6-pentahydroxy-N-(3-methoxypropyl)hexanamide]",< 100
3,"O=C(O)CCCCc1cc(Cl)c(COC2(c3cnccc3-c3ccccc3OC3CC3)CC2)cc1Cl [Compound I-157, 5-[2,5-dichloro-4-({1-[4-(2-cyclopropoxyphenyl)pyridin-3-yl]cyclopropoxy}methyl)phenyl]pentanoic acid]",< 100
4,"Clc1ccc(Cl)c(CNC2(c3cnccc3-c3ccccc3C3CC3)CC2)c1 [Compound I-10, 1-[4-(2-cyclopropylphenyl)pyridin-3-yl]-N-[(2,5-dichlorophenyl)methyl]cyclopropan-1-amine]",126 to 1000
5,"Cc1ccc(Cl)c(CNC2(c3cnccc3-c3ccccc3OC3CC3)CC2)c1 [Compound I-33, N-[(2-chloro-5-methylphenyl)methyl]-1-[4-(2-cyclopropoxyphenyl)pyridin-3-yl]cyclopropan-1-amine]",< 100
6,"CN(C[C@H](O)[C@@H](O)[C@H](O)[C@H](O)CO)C(=O)CN1CCN(C(=O)CCCCc2cc(Cl)c(COC3(c4cnccc4-c4ccccc4OC4CC4)CC3)cc2Cl)CC1 [Compound I-89, 2-(4-(5-(2,5-dichloro-4-((1-(4-(2-cyclopropoxyphenyl)pyridin-3-yl)cyclopropoxy)methyl)phenyl)pentanoyl)piperazin-1-yl)-N-methyl-N-((2S,3R,4R,5R)-2,3,4,5,6-pentahydroxyhexyl)acetamide]",< 100
7,"CC(CCCN(CCCN1CCCC1=O)C(=O)[C@@H](O)[C@@H](O)[C@H](O)[C@@H](O)CO)c1ccc(Cl)c(CNC2(c3cnccc3-c3ccccc3OC3CC3)CC2)c1 (stereo partly drawn) [Compound I-294, (2S,3S,4R,5S)-N-(4-{4-chloro-3-[({1-[4-(2-cyclopropoxyphenyl)pyridin-3-yl]cyclopropyl}amino)methyl]phenyl}pentyl)-2,3,4,5,6-pentahydroxy-N-[3-(2-oxopyrrolidin-1-yl)propyl]hexanamide]",< 100
8,"Cc1cc(CNC2(c3cnccc3-c3ccccc3OC3CC3)CC2)c(Cl)cc1CCCCNC(=O)NC[C@H](O)[C@@H](O)[C@H](O)[C@H](O)CO (stereo in doubt) [Compound I-151, 1-(4-{5-chloro-4-[({1-[4-(2-cyclopropoxyphenyl)pyridin-3-yl]cyclopropyl}amino)methyl]-2-methylphenyl}butyl)-3-[(2S,3R,4R,5R)-2,3,4,5,6-pentahydroxyhexyl]urea]",126 to 1000
9,"Cc1cc(CNC2(c3cnccc3-c3ccccc3OC3CC3)CC2)c(C)cc1CCCCNC(=O)NC[C@H](O)[C@@H](O)[C@H](O)[C@H](O)CO (stereo in doubt) [Compound I-147, 1-(4-{4-[({1-[4-(2-cyclopropoxyphenyl)pyridin-3-yl]cyclopropyl}amino)methyl]-2,5-dimethylphenyl}butyl)-3-[(2S,3R,4R,5R)-2,3,4,5,6-pentahydroxyhexyl]urea]",126 to 1000

# Next, values leading:
row,EC50 [nM],Compound
1,< 100,"CC(=O)N(CCCCCSc1ccc(Cl)c(CNC2(c3cnccc3-c3ccccc3OC3CC3)CC2)c1)C[C@H](O)[C@@H](O)[C@H](O)[C@H](O)CO [Compound I-499, N-[5-({4-chloro-3-[({1-[4-(2-cyclopropoxyphenyl)pyridin-3-yl]cyclopropyl}amino)methyl]phenyl}sulfanyl)pentyl]-N-[(2S,3R,4R,5R)-2,3,4,5,6-pentahydroxyhexyl]acetamide]"
2,126 to 1000,"O=C([C@@H](O)[C@@H](O)[C@H](O)[C@@H](O)CO)N(CCCSc1ccc(Cl)c(COC2(c3cnccc3-c3ccccc3OC3CC3)CC2)c1)CCN1CCS(=O)(=O)CC1 [Compound I-521, (2S,3S,4R,5S)-N-(3-{[4-chloro-3-({1-[4-(2-cyclopropoxyphenyl)pyridin-3-yl]cyclopropoxy}methyl)phenyl]sulfanyl}propyl)-N-[2-(1,1-dioxo-1λ^6,4-thiomorpholin-4-yl)ethyl]-2,3,4,5,6-pentahydroxyhexanamide]"
3,126 to 1000,"O=C(CCCSc1ccc(Cl)c(COC2(c3cnccc3-c3ccccc3OC3CC3)CC2)c1)N(CCCCCO)C[C@H](O)[C@@H](O)[C@H](O)[C@H](O)CO [Compound I-684, 4-f{[4-chloro-3-({1-[4-(2-cyclopropoxyphenyl)pyridin-3-yl]cyclopropoxy}methyl)phenyl]sulfanyl}-N-(5-hydroxypentyl)-N-[(2S,3R,4R,5R)-2,3,4,5,6-pentahydroxyhexyl]butanamide]"
4,126 to 1000,"Cc1ccc(SCCCN(CCS(C)(=O)=O)C[C@H](O)[C@@H](O)[C@H](O)[C@H](O)CO)cc1COC1(c2cnccc2-c2ccccc2OC2CC2)CC1 [Compound I-614, (2R,3R,4R,5S)-6-[(3-{[3-({1-[4-(2-cyclopropoxyphenyl)pyridin-3-yl]cyclopropoxy}methyl)-4-methylphenyl]sulfanyl}propyl)(2-methanesulfonylethyl)amino]hexane-1,2,3,4,5-pentol]"
5,< 100,"CN(CCCCNC(=O)NC[C@H](O)[C@@H](O)[C@H](O)[C@H](O)CO)S(=O)(=O)c1cc(COC2(c3cnccc3-c3ccccc3OC3CC3)CC2)c(Cl)cc1Cl [Compound I-467, 1-{4-[N-methyl2,4-dichloro-5-({1-[4-(2-cyclopropoxyphenyl)pyridin-3-yl]cyclopropoxy}methyl)benzenesulfonamido]butyl}-3-[(2S,3R,4R,5R)-2,3,4,5,6-pentahydroxyhexyl]urea]"
6,< 100,"CN(C[C@H](O)[C@@H](O)[C@H](O)[C@H](O)CO)C(=O)CCSc1ccc(Cl)c(COC2(c3cnccc3-c3ccccc3OC3CC3)CC2)c1 [Compound I-677, 3-{[4-chloro-3-({1-[4-(2-cyclopropoxyphenyl)pyridin-3-yl]cyclopropoxy}methyl)phenyl]sulfanyl}-N-methyl-N-[(2S,3R,4R,5R)-2,3,4,5,6-pentahydroxyhexyl]propanamide]"
7,< 100,"O=C(NCCCCC[S+]([O-])c1ccc(Cl)c(COC2(c3cnccc3-c3ccccc3OC3CC3)CC2)c1)NC[C@H](O)[C@@H](O)[C@H](O)[C@H](O)CO (stereo partly drawn) [Compound I-639, 1-{5-[4-chloro-3-({1-[4-(2-cyclopropoxyphenyl)pyridin-3-yl]cyclopropoxy}methyl)benzenesulfinyl]pentyl}-3-[(2S,3R,4R,5R)-2,3,4,5,6-pentahydroxyhexyl]urea]"
8,< 100,"COc1ccc2c(n1)CCN(S(=O)(=O)c1ccc(Cl)c(COC3(c4cnccc4-c4ccccc4OC4CC4)CC3)c1)C2 [Compound I-733, 6-[[4-chloro-3-([1-[4-(2-cyclopropoxyphenyl)pyridin-3-yl]cyclopropoxy]methyl)benzene]sulfonyl]-2-methoxy-5,6,7,8-tetrahydro-1,6-naphthyridine]"
